Results as given in ChEMBL document CHEMBL5518235, “Identification of Novel Series of Potent and Selective Relaxin Family Peptide Receptor 1 (RXFP1) Agonists” (J Med Chem, 2024).
The source made the active and inactive calls. The rule behind the calls is not given here.

Assays:
[1] = target: T1, Relaxin receptor 1 (Homo sapiens) (UniProt Q9HBX9); experiment: Agonist activity at human RXFP1 expressed in T-Rex-CHO-K1 cells assessed as stimulation of cAMP production by measuring maximal efficacy at 50 uM incubated for 45 mins by HTRF assay relative to control; assay type: functional, cell-based; details: filed as agonist
T1 sequence (whole entry): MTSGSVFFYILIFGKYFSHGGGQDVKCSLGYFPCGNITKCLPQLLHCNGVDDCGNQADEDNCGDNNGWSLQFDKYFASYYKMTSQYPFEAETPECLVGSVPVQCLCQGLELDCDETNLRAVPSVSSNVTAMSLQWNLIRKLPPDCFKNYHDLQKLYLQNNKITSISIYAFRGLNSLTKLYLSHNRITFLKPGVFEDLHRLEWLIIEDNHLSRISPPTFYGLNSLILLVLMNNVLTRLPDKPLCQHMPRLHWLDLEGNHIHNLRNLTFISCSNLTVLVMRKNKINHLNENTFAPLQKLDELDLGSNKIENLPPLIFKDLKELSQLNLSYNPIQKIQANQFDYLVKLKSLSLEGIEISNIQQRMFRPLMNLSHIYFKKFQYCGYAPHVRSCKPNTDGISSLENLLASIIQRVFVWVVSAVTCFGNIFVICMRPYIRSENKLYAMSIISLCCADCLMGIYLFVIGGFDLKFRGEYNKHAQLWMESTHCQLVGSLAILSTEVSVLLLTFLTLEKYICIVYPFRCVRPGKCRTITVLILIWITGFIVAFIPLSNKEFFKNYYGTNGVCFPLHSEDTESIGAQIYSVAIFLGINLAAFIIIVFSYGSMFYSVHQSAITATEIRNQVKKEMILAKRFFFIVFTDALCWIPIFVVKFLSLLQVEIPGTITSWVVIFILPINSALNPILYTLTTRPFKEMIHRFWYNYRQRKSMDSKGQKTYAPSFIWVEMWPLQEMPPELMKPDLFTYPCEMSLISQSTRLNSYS

[2] = target: T2, Relaxin receptor 1 (Rattus norvegicus) (UniProt Q6R6I6); experiment: Agonist activity at rat RXFP1 expressed in T-Rex-CHO-K1 cells assessed as stimulation of cAMP production at 40 uM incubated for 45 mins by HTRF assay; assay type: functional, cell-based
T2 sequence (whole entry): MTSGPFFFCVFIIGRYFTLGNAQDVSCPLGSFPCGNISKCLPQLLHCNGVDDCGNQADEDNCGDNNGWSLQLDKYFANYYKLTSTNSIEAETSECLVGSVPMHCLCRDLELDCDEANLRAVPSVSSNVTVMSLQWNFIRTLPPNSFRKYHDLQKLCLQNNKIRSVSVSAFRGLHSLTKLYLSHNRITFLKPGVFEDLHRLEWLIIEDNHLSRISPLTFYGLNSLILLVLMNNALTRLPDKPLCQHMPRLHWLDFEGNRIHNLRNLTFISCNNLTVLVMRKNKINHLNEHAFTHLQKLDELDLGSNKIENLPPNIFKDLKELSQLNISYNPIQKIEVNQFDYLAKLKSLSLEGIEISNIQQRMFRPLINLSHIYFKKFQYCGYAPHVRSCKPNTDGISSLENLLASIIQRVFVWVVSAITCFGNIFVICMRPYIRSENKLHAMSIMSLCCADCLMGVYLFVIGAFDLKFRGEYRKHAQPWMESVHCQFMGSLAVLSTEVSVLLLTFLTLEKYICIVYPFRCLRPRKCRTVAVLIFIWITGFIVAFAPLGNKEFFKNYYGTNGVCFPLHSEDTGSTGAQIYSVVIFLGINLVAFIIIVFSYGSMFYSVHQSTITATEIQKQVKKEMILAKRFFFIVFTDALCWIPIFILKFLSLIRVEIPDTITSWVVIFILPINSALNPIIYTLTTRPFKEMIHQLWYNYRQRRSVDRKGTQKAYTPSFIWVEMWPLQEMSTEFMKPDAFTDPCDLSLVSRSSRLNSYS

[3] = target: T3, Relaxin receptor 1 (Homo sapiens, UniProt Q9HBX9); experiment: Agonist activity at human RXFP1 expressed in T-Rex-CHO-K1 cells assessed as stimulation of cAMP production incubated for 45 mins by HTRF assay; assay type: functional, cell-based
T3 sequence (Q9HBX9 whole entry): T1 sequence (whole entry)

[4] = Lipophilicity, logD of the compound in 1-octanol and phosphate buffer at pH 7.4 incubated for 3 hrs by shake flask method based LC/MS/MS analysis; assay type: physicochemical; details: 1-octanol/phosphate buffer, pH 7.4
[5] = Metabolic stability in cryopreserved human hepatocytes assessed as intrinsic clearance measured per 10^6 cells at 1 uM after 120 mins by LC-MS/MS analysis; assay type: ADME, cell-based, Hepatocyte
[6] = Metabolic stability in cryopreserved human hepatocytes assessed as unbound intrinsic clearance measured per 10^6 cells at 1 uM measured after 120 mins by LC-MS/MS analysis; assay type: ADME, cell-based, Hepatocyte; details: 2 h
[7] = target: T4, Relaxin receptor 1 (Rattus norvegicus, UniProt Q6R6I6); experiment: Agonist activity at rat RXFP1 expressed in T-Rex-CHO-K1 cells assessed as stimulation of cAMP production incubated for 60 mins by HTRF assay; assay type: functional, cell-based
T4 sequence (Q6R6I6 whole entry): T2 sequence (whole entry)

[8] = target: T2, Relaxin receptor 1 (Rattus norvegicus); experiment: Agonist activity at rat RXFP1 expressed in T-Rex-CHO-K1 cells assessed as stimulation of cAMP production by measuring maximal efficacy incubated for 60 mins by HTRF assay relative to control; assay type: functional, cell-based; details: filed as agonist
[9] = Protein binding in rat plasma assessed as free fraction at 5 uM incubated for 18 hrs by equilibrium dialysis based LC-MS/MS analysis; assay type: ADME, cell-free
[10] = Metabolic stability in Han Wistar rat hepatocytes assessed as intrinsic clearance measured per 10^6 cells at 1 uM after 120 mins by LC-MS/MS analysis; assay type: ADME, cell-based, Hepatocyte; details: read-out: CLH
[11] = Metabolic stability in Han Wistar rat hepatocytes assessed as unbound intrinsic clearance measured per 10^6 cells at 1 uM after 120 mins by LC-MS/MS analysis; assay type: ADME, cell-based, Hepatocyte; details: 2 h
[12] = Volume of distribution at steady state in Han Wistar rat at 0.76 micromol/kg, iv by LC-MS/MS analysis; assay type: ADME, organism-based; details: in vivo, dose 0.76 µmol/kg, read-out: Vdss
[13] = Clearance in Han Wistar rat at 0.76 micromol/kg, iv by LC-MS/MS analysis; assay type: ADME, organism-based; details: in vivo, dose 0.76 µmol/kg
[14] = Half-life in Han Wistar rat at 0.76 micromol/kg, iv by LC-MS/MS analysis; assay type: ADME, organism-based; details: in vivo, dose 0.76 µmol/kg
[15] = Oral bioavailability in Han Wistar rat at 1.52 micromol/kg by LC-MS/MS analysis; assay type: ADME, organism-based; details: in vivo, 1.52 µmol/kg
[16] = Cytotoxicity against human THP-1 cells assessed as reduction of cell viability incubated for 48 hrs by resazurin reduction assay; assay type: toxicity, cell-based
[17] = Cytotoxicity against human HepG2 cells cultured under glucose condition assessed as reduction in cell viability; assay type: toxicity, cell-based
[18] = Cytotoxicity against human HepG2 cells cultured as C3a spheroids assessed as reduction in cell viability; assay type: toxicity, cell-based
[19] = target: Bile salt export pump (Homo sapiens, UniProt O95342); experiment: Inhibition of BSEP (unknown origin) by membrane vesicle assay; assay type: toxicity
Chain of Bile salt export pump (O95342 whole entry): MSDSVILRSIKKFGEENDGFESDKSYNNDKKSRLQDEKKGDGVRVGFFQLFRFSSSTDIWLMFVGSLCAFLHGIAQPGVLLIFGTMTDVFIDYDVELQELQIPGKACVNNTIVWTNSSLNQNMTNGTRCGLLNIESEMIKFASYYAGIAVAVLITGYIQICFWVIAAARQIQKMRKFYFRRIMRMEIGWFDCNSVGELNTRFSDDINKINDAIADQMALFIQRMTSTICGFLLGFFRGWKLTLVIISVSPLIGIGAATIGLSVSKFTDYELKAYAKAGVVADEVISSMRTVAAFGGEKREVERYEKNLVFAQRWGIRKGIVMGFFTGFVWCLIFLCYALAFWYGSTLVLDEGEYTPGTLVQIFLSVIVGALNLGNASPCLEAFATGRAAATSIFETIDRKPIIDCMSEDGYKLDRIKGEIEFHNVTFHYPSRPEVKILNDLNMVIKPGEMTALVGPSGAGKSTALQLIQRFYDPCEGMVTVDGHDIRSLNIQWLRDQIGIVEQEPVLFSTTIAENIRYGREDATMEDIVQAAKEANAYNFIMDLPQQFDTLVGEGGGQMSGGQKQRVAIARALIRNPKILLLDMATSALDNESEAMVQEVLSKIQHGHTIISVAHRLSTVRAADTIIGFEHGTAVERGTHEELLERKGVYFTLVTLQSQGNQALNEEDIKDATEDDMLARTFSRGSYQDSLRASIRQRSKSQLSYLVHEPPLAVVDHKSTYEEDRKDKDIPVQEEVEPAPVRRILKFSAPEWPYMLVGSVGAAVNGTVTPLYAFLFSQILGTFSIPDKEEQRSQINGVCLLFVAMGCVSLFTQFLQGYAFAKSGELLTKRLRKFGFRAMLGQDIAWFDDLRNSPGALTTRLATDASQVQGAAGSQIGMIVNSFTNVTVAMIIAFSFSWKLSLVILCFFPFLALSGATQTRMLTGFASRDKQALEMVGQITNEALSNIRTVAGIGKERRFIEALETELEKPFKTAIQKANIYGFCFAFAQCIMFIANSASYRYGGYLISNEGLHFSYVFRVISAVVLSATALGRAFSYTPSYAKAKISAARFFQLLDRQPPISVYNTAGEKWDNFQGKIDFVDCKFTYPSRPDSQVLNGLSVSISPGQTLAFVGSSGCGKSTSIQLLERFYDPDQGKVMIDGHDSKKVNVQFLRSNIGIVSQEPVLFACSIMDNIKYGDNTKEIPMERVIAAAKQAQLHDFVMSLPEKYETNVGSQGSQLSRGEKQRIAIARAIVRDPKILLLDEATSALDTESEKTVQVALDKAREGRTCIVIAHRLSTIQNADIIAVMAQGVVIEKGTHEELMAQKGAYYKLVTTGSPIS

[20] = target: Voltage-gated inwardly rectifying potassium channel KCNH2 (Homo sapiens, UniProt Q12809); experiment: Inhibition of human ERG by automated electrophysiology recording; assay type: toxicity
Chain of Voltage-gated inwardly rectifying potassium channel KCNH2 (Q12809 whole entry): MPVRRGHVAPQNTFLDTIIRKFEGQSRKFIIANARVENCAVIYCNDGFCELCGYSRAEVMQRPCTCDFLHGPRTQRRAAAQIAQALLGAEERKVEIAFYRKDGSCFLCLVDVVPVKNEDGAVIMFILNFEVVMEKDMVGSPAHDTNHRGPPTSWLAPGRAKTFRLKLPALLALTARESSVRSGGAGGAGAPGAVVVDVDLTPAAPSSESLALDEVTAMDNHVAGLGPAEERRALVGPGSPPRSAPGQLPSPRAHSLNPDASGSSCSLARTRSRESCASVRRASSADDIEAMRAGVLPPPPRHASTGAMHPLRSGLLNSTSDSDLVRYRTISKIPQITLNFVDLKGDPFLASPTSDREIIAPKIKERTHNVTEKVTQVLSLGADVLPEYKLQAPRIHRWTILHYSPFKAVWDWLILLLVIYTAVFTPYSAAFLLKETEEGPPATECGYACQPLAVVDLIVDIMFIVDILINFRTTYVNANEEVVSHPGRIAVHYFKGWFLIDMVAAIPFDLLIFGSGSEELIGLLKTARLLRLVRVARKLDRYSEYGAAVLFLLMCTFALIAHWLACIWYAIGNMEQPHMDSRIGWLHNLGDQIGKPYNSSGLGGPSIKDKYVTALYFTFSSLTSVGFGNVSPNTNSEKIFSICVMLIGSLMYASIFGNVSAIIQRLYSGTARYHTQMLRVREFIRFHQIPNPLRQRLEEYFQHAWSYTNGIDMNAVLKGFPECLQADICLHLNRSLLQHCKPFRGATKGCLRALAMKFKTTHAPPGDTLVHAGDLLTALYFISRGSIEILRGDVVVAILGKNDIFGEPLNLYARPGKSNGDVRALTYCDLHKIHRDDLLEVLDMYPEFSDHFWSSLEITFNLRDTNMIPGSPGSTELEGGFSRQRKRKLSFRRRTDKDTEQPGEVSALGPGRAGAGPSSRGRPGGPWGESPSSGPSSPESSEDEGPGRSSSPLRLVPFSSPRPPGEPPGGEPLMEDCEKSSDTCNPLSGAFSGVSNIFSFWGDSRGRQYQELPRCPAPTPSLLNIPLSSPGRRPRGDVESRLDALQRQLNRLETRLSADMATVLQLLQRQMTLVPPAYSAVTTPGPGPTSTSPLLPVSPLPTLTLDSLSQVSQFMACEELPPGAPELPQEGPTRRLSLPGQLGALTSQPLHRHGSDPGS

[21] = Metabolic stability in Han Wistar rat hepatocytes assessed as unbound intrinsic clearance measured […] at 1 uM after 120 mins by LC-MS/MS analysis; assay type: ADME, cell-based, Hepatocyte; details: 2 h
[22] = Volume of distribution at steady state in Han Wistar rat at 0.73 micromol/kg, iv by LC-MS/MS analysis; assay type: ADME, organism-based; details: in vivo, dose 0.73 µmol/kg, read-out: Vdss
[23] = Clearance in Han Wistar rat at 0.73 micromol/kg, iv by LC-MS/MS analysis; assay type: ADME, organism-based; details: in vivo, dose 0.73 µmol/kg
[24] = Half-life in Han Wistar rat at 0.73 micromol/kg, iv by LC-MS/MS analysis; assay type: ADME, organism-based; details: in vivo, dose 0.73 µmol/kg
[25] = Unbound Cmax in Sprague-Dawley rat at 3.5 mg/kg, iv administered via bolus followed by 6.0 mg/kg, iv administered via infusion for 3 hrs and measured 1 hrs post washout by LC-MS/MS analysis; assay type: ADME, organism-based; details: in vivo
[26] = target: T2, Relaxin receptor 1 (Rattus norvegicus); experiment: In vivo agonist activity at RXFP1 in Sprague-Dawley rat assessed as hemodynamic effect by measuring increase in heart rate at 3.5 mg/kg, iv administered via bolus followed by 6.0 mg/kg, iv administered via infusion for 3 hrs and measured 1 hrs post washout; assay type: functional, organism-based
[27] = target: T2, Relaxin receptor 1 (Rattus norvegicus); experiment: In vivo agonist activity at RXFP1 in Sprague-Dawley rat assessed as hemodynamic effect by measuring increase in blood pressure at 3.5 mg/kg, iv administered via bolus followed by 6.0 mg/kg, iv administered via infusion for 3 hrs and measured 1 hrs post washout; assay type: functional, organism-based
[28] = Cytotoxicity against human HepG2 cells cultured under galactose condition assessed as reduction in cell viability; assay type: toxicity, cell-based
[29] = Metabolic stability in human liver microsomes assessed as intrinsic clearance at 1 uM incubated for 30 mins in presence of NADPH by LC-MS/MS analysis; assay type: ADME, Microsome; details: liver microsomes, read-out: CLH
[30] = Metabolic stability in human liver microsomes assessed as unbound intrinsic clearance at 1 uM incubated for 30 mins in presence of NADPH by LC-MS/MS analysis; assay type: ADME, Microsome; details: 0.5 h

SMILES | Emax [1] [%] | EC50 [3] [µM] | logD at 3 h [4] | CL free [6] | EC50 [7] [µM] | Emax [8] [%] | fraction unbound at 18 h, 5 µM [9] | hepatocyte CLint at 1 µM [10] [µL/min/1e6 cells] | CL free [11] [µL/min] | Vd [12] [L/kg] | clearance [13] [mL/min/kg] | half-life [14] [h] | further results
COc1cc(F)c(-c2ccc(C(=O)O)cc2)cc1C(=O)N[C@H]1[C@@H](C(=O)Nc2cccc(S(=O)(=O)C(F)(F)F)c2)[C@@H]2C=C[C@H]1C2 (racemic) [listing 1 of 2 here] | 92 |  |  |  |  |  |  |  |  |  |  |  | Activity [2]: inactive
COc1cc(F)c(O[C@H]2CC[C@@H](C(=O)O)CC2)cc1C(=O)N[C@@H]1[C@H]2CC[C@H](C2)[C@@H]1C(=O)Nc1cccc(S(=O)(=O)C(F)(F)F)c1 | 102 | 0.0398 | 3.5 | 259 µL/min | 10 | 43 | 0.011 | 23 | 397 | 1.7 | 76 | 1.2 | hepatocyte CLint at 1 µM ([5]; cryopreserved hepatocytes, read-out: CLH): 15 µL/min/1e6 cells; bioavailability [15]: 2.6%
COc1cc(F)c(O[C@H]2CC[C@@](C)(C(=O)O)CC2)cc1C(=O)N[C@H]1[C@@H]2CC[C@@H](C2)[C@H]1C(=O)Nc1ccc(F)c(S(F)(F)(F)(F)F)c1 | 103 | 3.98 | 4.5 | 7 10^3uL/min | 7.94 | 128 | 0.0013 | 14 |  |  |  |  | CLH ([5]; hepatocytes, 2 h, 1 µM): 49 µL/min/1e6 cells; IC50 at 48 h [16]: 11 µM; IC50 [17]: 134 µM; IC50 [18]: 34 µM; IC50 [19]: 97 µM; IC50 [20]: 33 µM; CL free [21]: 2 µL/min; Vd [22]: 1.5 L/kg; clearance [23]: 14 mL/min/kg; half-life [24]: 2.3 h; fCmax [25]: 12 nM; Activity [26]: inactive; Activity [27]: inactive; IC50 [28]: 122 µM
COc1cc(F)c(-c2ccc(C(=O)O)cc2)cc1C(=O)N[C@H]1[C@@H](C(=O)Nc2cccc(S(=O)(=O)C(F)(F)F)c2)[C@@H]2C=C[C@H]1C2 (racemic) [listing 2 of 2 here] |  | 0.2 | 3.4 |  |  |  | 0.0031 | 16 | 457 | 0.92 | 73 | 0.37 | microsomal CLint at 1 µM [29]: 6.3 µL/min/mg; CL free [30]: 121 µL/min/mg
